Here are results for 1 compound from paper PMC5376326, “Inhibition of ANO1 by luteolin and its cytotoxicity in human prostate cancer PC-3 cells” (PLoS ONE, 2017).

One series has as its target T1, ANO1 (Homo sapiens, UniProt Q5XXA6, DEL476-501).
T1 sequence (Q5XXA6 with tags, fused parts or gaps isoform Q5XXA6-5 DEL539-564): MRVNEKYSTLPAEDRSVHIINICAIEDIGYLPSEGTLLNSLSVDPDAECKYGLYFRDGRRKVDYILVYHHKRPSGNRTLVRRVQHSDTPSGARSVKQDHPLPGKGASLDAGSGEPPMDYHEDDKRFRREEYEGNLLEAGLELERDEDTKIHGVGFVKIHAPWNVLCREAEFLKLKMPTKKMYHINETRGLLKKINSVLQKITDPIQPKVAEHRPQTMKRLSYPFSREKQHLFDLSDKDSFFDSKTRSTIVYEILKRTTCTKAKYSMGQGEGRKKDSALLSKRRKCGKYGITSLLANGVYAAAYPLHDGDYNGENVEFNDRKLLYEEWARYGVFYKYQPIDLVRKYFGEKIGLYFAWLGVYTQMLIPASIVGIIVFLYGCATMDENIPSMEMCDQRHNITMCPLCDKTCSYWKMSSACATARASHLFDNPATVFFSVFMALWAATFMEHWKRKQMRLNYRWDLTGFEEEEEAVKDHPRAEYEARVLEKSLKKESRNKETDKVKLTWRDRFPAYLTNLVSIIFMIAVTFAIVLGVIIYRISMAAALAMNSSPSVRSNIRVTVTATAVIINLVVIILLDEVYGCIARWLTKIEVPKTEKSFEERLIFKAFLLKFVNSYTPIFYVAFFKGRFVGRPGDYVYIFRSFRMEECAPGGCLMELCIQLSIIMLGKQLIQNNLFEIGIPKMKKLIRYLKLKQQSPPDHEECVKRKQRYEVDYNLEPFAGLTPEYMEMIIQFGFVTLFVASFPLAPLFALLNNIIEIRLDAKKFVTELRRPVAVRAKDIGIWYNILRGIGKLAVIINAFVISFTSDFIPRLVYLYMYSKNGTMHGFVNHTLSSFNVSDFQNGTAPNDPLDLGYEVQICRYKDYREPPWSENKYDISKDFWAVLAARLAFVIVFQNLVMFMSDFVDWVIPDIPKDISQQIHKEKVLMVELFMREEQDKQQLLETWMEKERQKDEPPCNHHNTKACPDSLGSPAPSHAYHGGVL
Put plainly: Whole-cell patch-clamp in ANO1-expressing FRT cells. The note with it: 100 μM ATP, read-out: Inhibition of ANO1 chloride currents. The format is cell-based. On the procedure: Patch-clamp recordings were performed on ANO1-expressing FRT cells using the whole-cell recording configuration. The bath solution contained (in mM): 140 NMDG-Cl, 1 CaCl2, 1 MgCl2, 10 glucose and 10 HEPES (pH 7.4). The pipette solution contained (in mM): 130 CsCl, 0.5 EGTA, 1 MgCl2, 1 Tris-ATP, and 10 HEPES (pH 7.2). Pipettes were pulled from borosilicate glass and had resistances of 3–5 MΩ after fire polishing. Seal resistances were between 3 and 10 GΩ. The liquid junction potential (~2.4 mV) was not corrected. After establishing the whole-cell configuration, whole-cell capacitance and series resistance were compensated with the amplifier circuitry. After establishing the whole-cell configuration, ANO1 was activated by ATP (100 μM). Whole-cell currents were elicited by applying hyperpolarizing and depolarizing voltage pulses from a holding potential of 0 mV to potentials between -80 mV and +80 mV in steps of 20 mV. Recordings were made at room temperature using an Axopatch-200B (Axon Instruments, Union City, CA). Currents were digitized and analyzed using a Digidata 1440A converter (Axon Instruments), and pCLAMP 10.2 software (Molecular Devices, Sunnyvale, CA). Currents were low-pass filtered at 1 kHz and sampled at 5 kHz.

In a further series the test system is FRT cells. Put plainly: Intracellular calcium measurement (Fluo-4) in FRT cells. In kind it is cell-based, rat. The note with it: 30 and 100 μM, 20 min pretreatment, 100 μM ATP. On the procedure: Intracellular calcium levels were monitored using Fluo-4 NW calcium assay kit (Invitrogen, Carlsbad, CA) as per the manufacturer's protocol in FRT and PC-3 cells. Briefly, the cells were cultured in a 96 well plate and incubated with 100 μL assay buffer including Fluo-4 NW. After 1 hour incubation, Fluo-4 fluorescence was measured with a FLUOstar Omega microplate reader equipped with syringe pumps and custom Fluo-4 excitation/emission filters (485/538 nm). Intracellular calcium increase was induced by application of 100 μM ATP.

Another series has as its system PC-3 cells. The experiment in a line: Scratch wound healing assay in PC-3 cells. In kind it is cell-based, human. The note with it: 10 and 30 μM; 48 h post-wound. On the procedure:
PC-3 cells were cultured in a 96-well plate until they reached ~80% confluence as a monolayer and then the cell layer was wounded using a 96-Well WoundMaker (Essen BioScience, MI) and washed twice with fresh serum free media. The cells were incubated with serum free medium, and images of the wounds were taken using the IncuCyte ZOOM (Essen BioScience, MI). The wound recovery properties of test compounds were analyzed by the IncuCyte software.

On the set-up of series [1]: method as in PMID 9827549. The settings on record: rat; oral 50 μmol/kg (~14.3 mg/kg) in propyleneglycol; cited from earlier work.
The next series concerns PC-3. Details: method as in PMID 18008333, PMID 23300633. The settings on record: intraperitoneal 10 mg/kg; PC-3 xenograft mouse; cited from earlier work.
The subject of another series is LNCaP. Details: method as in PMID 18008333, PMID 23300633. The note with it: intraperitoneal 50 mg/kg; LNCaP xenograft mouse; cited from earlier work.

For `O=c1cc(-c2ccc(O)c(O)c2)oc2cc(O)cc(O)c12` [luteolin], the inhibition (usually the percentage by which the read-out fell short of the control) at 10 µM on ANO1 (10 μM) amounted to 55.3 ± 2.8%. At ANO1 (100 μM), the inhibition at 100 µM worked out at 99.2 ± 0.2%. Moreover, in the series on FRT cells, the “Effect on ATP-induced cytosolic calcium increase” value is on record as “not affected”. In addition, the “Inhibition of wound recovery, high versus low ANO1 expressing PC-3 cells” value with PC-3 cells was “more strongly inhibited”. For the same compound, in series [1], the “Maximum plasma level of free luteolin” value is reported as ~ 3.08 μM; the “Maximum plasma level of total luteolin (free luteolin and its conjugates)” value is ~ 15.5 μM. In the series on PC-3, the “Volume and weight of solid tumors” value was “significantly decreased”. Further, in the series on LNCaP, the “Volume and weight of solid tumors” value is listed as “significantly decreased”.
